From patent US4054659A, “5,7 Dihydroxy-1-(trimethoxybenzyl)-1,2,3,H-tetrahydroisoquinolines and use thereof” (Tanabe Seiyaku Co., Ltd., priority 1974, dated 1977)

Experiments:
heart rate = experiment: Increase of heart rate after duodenal administration in anesthetized cats; type: in vivo; settings: 10 μg/kg, duodenum
Description: (§1) Cats were anesthetized with sodium pentobarbital (40 mg/.kg, i.p.). Under artificial respiration (13 - 15 ml of air/kg/stroke, 30 strokes/minute) thereof, the cats were immobilized by intraveous injection of gallamine triethyodide (8 mg/kg). Serotonin.creatinin sulfate (=bronchoconstrictor) was injected intravenously to the cats at the dose of 20 μg/kg, and the intratracheal pressure was measured by means of a pressure transducer. Then, each one of test compounds was administered to the duodenum of the cats at the dose of 10 μg/kg, and the intratracheal pressure and the heart rate were measured with the passage of time. The bronchodilating activity was estimated by the preventive effects (%) of each test compound against bronchoconstriction.

[1] = tested on: serotonin-creatinin sulfate-induced bronchoconstriction; experiment: Preventive effects against serotonin-creatinin sulfate-induced bronchoconstriction (bronchodilating activity) in anesthetized cats; type: in vivo; settings: for Preventive effects against bronchoconstriction: cats, 10 μg/kg, duodenum
Source text: The 5,7-dihydroxy-tetrahydroisoquinoline derivative (I) of the present invention or a pharmaceutically acceptable acid addition salt thereof has potent bronchodilating activity and is useful as a bronchodilator. Moreover, as compared with 6,7-dihydroxy-1-(3,4,5-trimethoxybenzyl)-1,2,3,4-tetrahydroisoquinoline, the 5,7-dihydroxy-tetrahydroisoquinoline derivative (I) of the present invention is more useful because of the longer duration of its point bronchodilating activity and/or lesser side effects (e.g., lesser increase of the heart rate). […] However, the bronchodilating activity of the former lasts for more than 3.5 hours at its maximum level, whereas the latter decreases to about 1/3 the maximum level after 3.5 hours.
as §1

[2] = 50% lethal dose (LD50) by intravenous injection to mice; settings: mouse, in vivo
Source text: The toxicity of the 5,7-dihydroxytetrahydroisoquinoline derivative (I) of the present invention is considerably low.

[3] = 15 minutes after administration
[4] = 30 minutes after administration
[5] = 45 minutes after administration
[6] = 60 minutes after administration
[7] = 75 minutes after administration
[8] = 90 minutes after administration
[9] = 120 minutes after administration
[10] = 150 minutes after administration
[11] = 180 minutes after administration
[12] = 210 minutes after administration

Structure (SMILES)	Preventive effects against bronchoconstriction ([1]; 5 minutes after administration) [%]	Preventive effects against bronchoconstriction [1, 3] [%]	Preventive effects against bronchoconstriction [1, 4] [%]	Preventive effects against bronchoconstriction [1, 5] [%]	Preventive effects against bronchoconstriction [1, 6] [%]	Preventive effects against bronchoconstriction [1, 7] [%]	Preventive effects against bronchoconstriction [1, 8] [%]	Preventive effects against bronchoconstriction [1, 9] [%]	Preventive effects against bronchoconstriction [1, 10] [%]	Preventive effects against bronchoconstriction [1, 11] [%]	Preventive effects against bronchoconstriction [1, 12] [%]	other results
COc1cc(CC2NCCc3c(O)cc(O)cc32)cc(OC)c1OC.Cl (stereo not shown) [A, 5,7-dihydroxy-1-(3,4,5-trimethoxybenzyl)-1,2,3,4-tetrahydroisoquinoline hydrochloride]	8.5 ± 3.2	47.9 ± 8.5	63.5 ± 9.9	69.7 ± 8.7	71.1 ± 7.1	70.7 ± 6.8	72.5 ± 6.1	71.0 ± 5.6	70.2 ± 6.4	69.1 ± 5.7	64.6 ± 7.4	Increase of heart rate (Number of heart beats increased/minute) (heart rate; 5 minutes after administration): 1.3 ± 0.3 heart beats increased/minute; Increase of heart rate (Number of heart beats increased/minute) (heart rate; [3]): 10.6 ± 3.4 heart beats increased/minute; Increase of heart rate (Number of heart beats increased/minute) (heart rate; [4]): 22.2 ± 6.5 heart beats increased/minute; Increase of heart rate (Number of heart beats increased/minute) (heart rate; [5]): 21.3 ± 5.2 heart beats increased/minute; Increase of heart rate (Number of heart beats increased/minute) (heart rate; [6]): 20.0 ± 4.4 heart beats increased/minute; Increase of heart rate (Number of heart beats increased/minute) (heart rate; [7]): 18.7 ± 3.8 heart beats increased/minute; Increase of heart rate (Number of heart beats increased/minute) (heart rate; [8]): 17.8 ± 3.0 heart beats increased/minute; Increase of heart rate (Number of heart beats increased/minute) (heart rate; [9]): 17.2 ± 2.3 heart beats increased/minute; Increase of heart rate (Number of heart beats increased/minute) (heart rate; [10]): 15.2 ± 2.1 heart beats increased/minute; Increase of heart rate (Number of heart beats increased/minute) (heart rate; [11]): 13.7 ± 1.4 heart beats increased/minute; Increase of heart rate (Number of heart beats increased/minute) (heart rate; [12]): 12.0 ± 1.4 heart beats increased/minute; Duration of bronchodilating activity at its maximum level ([1]; after duodenal administration): more than 3.5 hours; Maximum preventive effects compared with 6,7-dihydroxy-1-(3,4,5-trimethoxybenzyl)-1,2,3,4-tetrahydroisoquinoline (hydrochloride) ([1]; duodenal administration): almost the same maximum preventive effects; LD50 [2]: ~51 mg/kg
COc1cc(CC2NCCc3cc(O)c(O)cc32)cc(OC)c1OC.Cl (stereo not shown) [B, 6,7-dihydroxy-1-(3,4,5-trimethoxybenzyl)-1,2,3,4-tetrahydroisoquinolin hydrochloride, reference compound]	21.1 ± 8.6	71.2 ± 7.6	77.6 ± 5.2	73.9 ± 2.6	67.2 ± 3.4	62.3 ± 5.1	54.7 ± 6.0	45.5 ± 7.5	38.0 ± 8.7	31.6 ± 9.5	26.0 ± 7.4	Bronchodilating activity remaining after 3.5 hours, as fraction of the maximum level ([1]; after 3.5 hours, duodenal administration): about 1/3
